The subject of assay [1] is bradykinin induced bronchoconstriction. The following applies: asthmatics; cited from earlier work.
The next assay relates to GABAA receptors. Conditions: FIG. 10. Here is the method:
(§1) (FIG. 9.) To determine if the mechanism of propofol's relaxation of a tachykinin response was mediated by GABAA receptors, the ability of an antagonist of GABAA receptors should inhibit propofol's response was evaluated. […] (FIG. 10.)

In assay [2] the test system is substance P contraction, guinea pig tracheal rings. Put plainly: Relaxation of substance P-induced contraction in guinea pig tracheal rings. The assay is classed as cell-based. Conditions: FIG. 2, FIG. 3E-F, FIG. 8. The procedure: (§2) Substance P is an endogenous tachykinin released in airways by C fibers during irritation of the airway.
(§3) Propofol is known to have preferential protective airway effects during intubation compared to other intravenous anesthetics (3, 4). To determine if two other commonly used intravenous anesthetics have similar protective airway effects on contractile challenges, etomidate and ketamine were evaluated to determine their ability to relax airway smooth muscle contraction induced by NANC nerve stimulation (FIGS. 3A and B), cholinergic nerve stimulation (FIGS. 3C and D), and exogenous addition of substance P (FIGS. 3E and F) to isolated guinea pig tracheal rings in organ baths.
Propofol's effect as an anesthetic is modulated by an allosteric potentiation of GABA at GABAA receptors in the brain. However, we are unaware of any report that GABAA receptors have been found on airway smooth muscle.

Assay [3] has as its system NANC contractions, epithelium-denuded guinea pig tracheal rings. Nature of the assay: Relaxation of NANC (C fiber, neurally liberated tachykinin) contractions in guinea pig tracheal rings. The assay is classed as cell-based. The following applies: clinically relevant concentrations, FIG. 2, FIG. 3A-B. The procedure:
as §2, §3

Assay [4] deals with cholinergic nerve mediated contractions, guinea pig tracheal rings. Nature of the assay: Relaxation of cholinergic nerve mediated contractions in guinea pig tracheal rings. The assay is classed as cell-based. The following applies: clinically relevant concentrations, FIG. 1, FIG. 3C-D. The procedure: To distinguish between the two possibilities, intravenous anesthetics were evaluated for their effects on attenuating bronchoconstriction induced by activation of the cholinergic nerves (liberating acetylcholine). […] (FIG. 1.)
as §3

Assay [5] concerns substance P contraction, human tracheal rings. Nature of the assay: Substance P contraction of human tracheal rings in organ baths and its relaxation. The format is cell-based. The following applies: human tracheal rings in organ baths; for relaxation of substance P contraction in human tracheal rings: cumulative concentrations, FIG. 5, FIG. 9. The procedure: as §1
The subject of a further assay is guinea pig airway rings. Conditions: cited from earlier work.
For assay [6], the system named is NK1-induced contraction, guinea pig tracheal rings. Conditions: guinea pig tracheal rings stimulated with acetyl-substance P; FIG. 6A. The text has this: (§4) Guinea pig tracheal rings stimulated with acetyl-substance P to produce an NK1-induced contraction (FIG. 6A) and with neurokinin A to produce an NK2-induced contraction (FIG. 6B).
In assay [7] the test system is NK2-induced contraction, guinea pig tracheal rings. Conditions: guinea pig tracheal rings stimulated with neurokinin A; FIG. 6B.
Excerpt: as §4

Assay [8] has as its system contractile responses from acetylcholine, histamine, and endothelin in airway tissues. Conditions: airway tissues from humans and animal models; cited from earlier work.
Assay [9] deals with endothelin-1 induced contractions, guinea pig tracheal rings. The following applies: within clinically relevant concentrations, FIG. 4.
Method: (§5) To determine if propofol and thiopental have the ability to relax histamine or endothelial induced contractions, propofol and thiopental were evaluated at clinical and supra-clinical concentrations to determine their ability to relax histamine or endothelin-1 induced contractions in guinea pig tracheal rings.
Assay [10] deals with acetylcholine-induced contractions, isolated rings of guinea pig trachea. Conditions: isolated guinea pig tracheal rings; clinically significant/relevant concentrations; FIG. 1.
Excerpt: Intravenous anesthetics were compared for their ability to relax airway smooth muscle contractions in isolated rings of guinea pig trachea in response to acetylcholine.
Assay [11] concerns methacholine, histamine-induced (neural component) or vagal nerve-induced bronchoconstriction. Conditions: neural component of histamine-induced, or vagal nerve-induced bronchoconstriction; cited from earlier work.
The test system of assay [12] is permeabilized canine tracheal smooth muscle cells. Conditions: absence or presence of muscarinic receptor activation, propofol 270 μM; cited from earlier work.
In assay [13] the test system is vagal nerve induced bronchospasm. The following applies: sheep; delivery via the bronchial artery; cited from earlier work.
The subject of assay [14] is L-type calcium channels, intracellular calcium changes, inositol phosphate synthesis in airway smooth muscle. The following applies: above clinically achieved concentrations; cited from earlier work.
Assay [15] concerns histamine induced contractions, guinea pig tracheal rings. The following applies: within clinically relevant concentrations, FIG. 4.
Method: as §5
The subject of assay [16] is methacholine induced bronchoconstriction. Conditions: sheep; delivery via the bronchial artery; cited from earlier work.

Starred links: 1 amine or outer side, 2 acyl side, 3 side chain; linkers in the order of their positions; H or OH if unused. Positions of bridges follow the written chain, without caps; N, C: chain ends. Non-standard residues stand in square brackets, D forms with d. Residues, ends and D or L forms follow the SMILES beside them. No end group written: not given here. *: point of attachment. X2 = CN(/C(=C\c1ccc(O)cc1)C(=O)[*:2])[*:1]; X1 = CCCCCc1ccccc1CCC(=O)*

For `CCCCCc1ccccc1CCC(=O)NC1C(=O)N(C)/C(=C\c2ccc(O)cc2)C(=O)NC(CC(C)C)C(=O)NC(Cc2ccccc2)C(=O)NC(C(C)O)C(=O)NC(CC(N)=O)C(=O)NC(CO)C(=O)OC1C` (stereo not shown) [FK224] (X1-T[X2]LFTNS; ester 1-C; configuration not given here), the “effect on bradykinin induced bronchoconstriction” value in assay [1] is “attenuated bradykinin induced bronchoconstriction”.
Regarding `COc1ccc(-c2ccc(=N)n(CCCC(=O)O)n2)cc1` [Gabazine], the “reversal of propofol mediated relaxation of a substance P contraction” value with GABAA receptors was “able to reverse propofol mediated relaxation”.
`CCOC(=O)c1cncn1[C@H](C)c1ccccc1` [etomidate]: in assay [2], the “attenuation/relaxation of substance P (exogenous tachykinin) contraction” value (“attenuation/relaxation of substance P” for short) was “failed to relax”. For the same compound, the “attenuation/relaxation of NANC contractions (neurally liberated tachykinins)” value in assay [3] is recorded as “failed to relax”. The “relaxation of cholinergic nerve mediated contractions” value in assay [4] is given as “failed to relax”.
On to `CNC1(c2ccccc2Cl)CCCCC1=O` (stereo not shown) [ketamine], for which, in [2], the “attenuation/relaxation of substance P” value is listed as “failed to relax”. The “attenuation/relaxation of NANC contractions (neurally liberated tachykinins)” value in assay [3] was “failed to relax”. In addition, in assay [4], the “relaxation of cholinergic nerve mediated contractions” value was “failed to relax”.
Take `NCc1cc(=O)[nH]o1` [muscimol]: the “attenuation/relaxation of substance P” value in assay [2] is “dose-dependently relaxed”. Moreover, the “relaxation of substance P contraction in human tracheal rings” value in assay [5] was “dose dependently relaxed”. In the assay with guinea pig airway rings, the “effect on acetylcholine-induced contraction” value is “failed to show an effect” and the “effect on basal tone” value was “failed to show an effect”.
For the compound `CC(C)c1cccc(C(C)C)c1O` [propofol, 2,6-diisopropylphenol], in [2], the “attenuation/relaxation of substance P” value was “more effective than thiopental”. Besides, the “relaxation of substance P contraction in human tracheal rings” value in assay [5] is reported as “dose-dependently relaxed”. Also, the “relaxation of NK1-induced contraction” value in [6] was “much less effective”. For the same compound, in assay [7], the “relaxation of NK2-induced contraction” value is recorded as “significantly relaxed”. In addition, in assay [3], the “attenuation/relaxation of NANC contractions (neurally liberated tachykinins)” value is “more effective than thiopental”. In addition, in assay [8], the “propofol concentration attenuating contractile responses from acetylcholine, histamine, endothelin” value is 100 to 300 µM. For the same compound, the “relaxation of endothelin-1 induced contraction” value in [9] is “neither anesthetic effected the spontaneous relaxation”. For the same compound, the “relaxation of acetylcholine-induced contractions” value in assay [10] is “without effect”. The “propofol concentration attenuating bronchoconstriction in dogs” value in assay [11] was 20 mg/mL. For the same compound, in assay [12], the calcium sensitivity entry is reported as “not effected”. Besides, the “propofol dose attenuating vagal nerve induced bronchospasm” value in [13] was 0.3 mg/min. Besides, the “propofol concentration needed for effects on L-type calcium channels, intracellular calcium or inositol phosphate signaling” value in assay [14] is greater than 100 µM. In assay [4], the “relaxation of cholinergic nerve mediated contractions” value is “failed to relax”. For the same compound, the “relaxation of histamine induced contraction” value in assay [15] was “neither anesthetic effected the spontaneous relaxation”. Moreover, in [16], the “propofol dose attenuating methacholine induced bronchoconstriction” value is on record as 3 mg/min.
For the compound `CCCC(C)C1(CC)C(=O)NC(=S)NC1=O` (stereo not shown) [thiopental], the “relaxation of endothelin-1 induced contraction” value in assay [9] is “neither anesthetic effected the spontaneous relaxation”. Also, in [10], the “relaxation of acetylcholine-induced contractions” value was “dose-dependently relaxed”. Also, the “relaxation of histamine induced contraction” value in assay [15] was “neither anesthetic effected the spontaneous relaxation”.
For “Substance P (RPKPQQFFGLM-NH2; ends and bridges not checked; UniProt P20366 58-68, looked up) [endogenous tachykinin released in airways by C fibers during irritation of the airway]”, the “contraction of human tracheal rings” value in [5] (FIG. 5) was “dose-dependently contracted”.

The values above are taken from patent US20100048732A1, “Method of mediating Airway Smooth Muscle Construction Due to Airway Irritation” (priority 2006, published 2010).
